Assay results taken from patent publication US11478451B1, “Macrocyclic chlorine substituted indole derivatives” (Bayer Aktiengesellschaft, priority 2017, dated 2022).
Where a name gives a salt, the structure may show the parent alone. Read-outs that look alike come from different tables or passages of the source.

Tests used:
SUDHL10 cells [1] = test: Induction of caspase-3/7 activity (Caspase-Glo 3/7), SUDHL10; type: cell-based; details: EC50, median, SUDHL10, 3 h treatment
In short: (§1)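 Caspase-3/7 activation measured by Caspase-Glo 3/7 after a 3 h compound exposure of diffuse large B-cell lymphoma cells at 37 °C. Values corrected by subtracting the medium-only background.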

SUDHL5 cells [2] = test: Antiproliferation assay (CellTiter-Glo, 72 h), SUDHL5; type: cell-based; details: IC50, median, SUDHL5, 72 h, read-out: Antiproli SUDHL5 [M] (median)
Experimental: (§2) Assessment of the Anti-Proliferative Effect of Compounds in Different Cell Lines
(§3) The impact of compounds on the proliferation of different cell lines was assessed using the CellTiter-Glo® Luminescent Cell Viability reagent from Promega (G7573).
(§4) In parallel, cells were plated in a reference (day 0) plate for time zero determination.
(§5) Rim wells were excluded. The cells were incubated for 72 h hours in a humidified incubator at 37° C. The day 0 plate was measured by adding 30 μL/well of CTG solution (CellTiter-Glo® Luminescent Cell Viability reagent, Promega G7573) to time zero wells in the reference plate followed by a 10 minutes incubation and luminescence reading at 0.1 ms. using the PHERAstar FS microplate reader (BMG Labtech).
(§6) After 72 h incubation, the treated plates were measured in the same way as the day 0 plate mentioned above.

AMO-1 cells = test: Antiproliferation assay (CellTiter-Glo, 72 h), AMO-1; type: cell-based; details: IC50, median, AMO-1, 72 h, read-out: Antiproli AMO-1 [M] median
In short: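 A reference plate measured at day 0 set the time-zero baseline. Treated plates were read by CellTiter-Glo luminescence after 72 h of compound exposure at 37°C in a humidified incubator.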

HMC-1-8 cells = test: Antiproliferation assay (CellTiter-Glo, 72 h), HMC-1-8; type: cell-based; details: IC50, median, HMC-1-8, 72 h, read-out: Antiproli HMC-1-8 [M] median
Experimental: as §2, §3, §4, §5, §6

SUDHL5 cells [3] = test: Induction of cytotoxicity (CellTiter-Glo, 5 h), SUDHL5; details: SUDHL5, 5 h
Experimental: Therefore, cytotoxicity assays were run in parallel in SUDHL5 and SUDHL10 cells.
The different cell lines were plated in culture medium (RPMI 1640 [GIBCO #22400-089] supplemented with 10% Fetal Bovine Serum) at a density of 3,300 cells in 30 μL/well in a sterile, solid black, flat bottom, polystyrene, TC-treated 384-well microplate (Corning #3571) using Multidrop Combi Reagent Dispenser. As a control, medium without cells was also added to the plate. Cells were incubated in a humidified incubator at 37° C. overnight. […] Rim wells were excluded. The cells were incubated for 5 h hours in a humidified incubator at 37° C. After this incubation, 30 μL of CellTiter-Glo® Luminescent Cell Viability reagent (Promega, G7573) was added to each well using the Multidrop Combi Reagent Dispenser, followed by 15 min incubation on a shaker at room temperature. Finally, luminescence was read at 0.1 ms, with a gain of 3000 using the PHERAstar FS microplate reader (BMG Labtech).

SUDHL10 cells [4] = test: Induction of cytotoxicity (CellTiter-Glo, 5 h), SUDHL10; details: SUDHL10, 5 h
SUDHL5 cells [5] = test: Induction of caspase-3/7 activity (Caspase-Glo 3/7), SUDHL5; type: cell-based; details: EC50, median, SUDHL5, 3 h treatment
In short: as §1

[6] = Homo sapiens, SU-DHL-5, 5 h, read-out: Cytotox SUDHL5 [M] (median), IC50, median
[7] = Homo sapiens, SU-DHL10, 5 h, read-out: Cytotox SUDHL10 [M] (median), IC50, median
[8] = read-out: Cytotox SUDHL5 [M] (median), IC50, median
[9] = read-out: Cytotox SUDHL10 [M] (median), IC50, median

IC50 (SUDHL5 cells [2]; Homo sapiens, SU-DHL-5, 72 h) | EC50 (SUDHL10 cells [1]) | IC50 (SUDHL5 cells [2]) | EC50 (SUDHL5 cells [5]) | Compound | IC50 (AMO-1 cells; Homo sapiens, AMO1, 72 h) | IC50 (HMC-1-8 cells; 72 h) | IC50 (AMO-1 cells) | IC50 (SUDHL5 cells [3]; [8]) | further results
– | 380 nM | 3.4e-07 M | – | CCc1c2c(nn1C)CN(CC(F)F)CCCCn1c(C(=O)O)c(CCCOc3cccc4cc(F)ccc34)c3ccc(Cl)c-2c31 (racemic) [Example 62, (rac)-4-chloro-14-(2,2-difluoroethyl)-3-ethyl-7-{3-[(6-fluoronaphthalen-1-yl)oxy]propyl}-2-methyl-10,11,12,13,14,15-hexahydro-2H-pyrazolo[3′,4′:8,9][1,6]diazacycloundecino[10,11,1-hi]indole-8-carboxylic acid] | – | 2.2e-06 M | 2.2e-07 M | 3.1e-07 M | IC50 (SUDHL10 cells [4]; [9]): 3.6e-07 M
1e-06 M | 1500 nM | – | 810 nM | CCc1c2c(nn1C)COCC1CC1Cn1c(C(=O)O)c(CCCOc3cccc4cc(F)ccc34)c3ccc(Cl)c-2c31 (single isomer, unassigned; (+)) [Example 104, (+)-3-chloro-4-ethyl-14-{3-[(6-fluoronaphthalen-1-yl)oxy]propyl}-5-methyl-5,7,9a,10,10a,11-hexahydro-9H-cyclopropa[3,4]pyrazolo[4′,3′:9,10][1,6]oxazacycloundecino[8,7,6-hi]indole-13-carboxylic acid N-ethylethanamine salt] | – | – | 2.4e-06 M | 9.7e-07 M | IC50 (HMC-1-8 cells): 8.5e-06 M
2.1e-07 M | 160 nM | – | 120 nM | CCc1c2c(nn1C)COCC1(CCn3c(C(=O)O)c(CCCOc4cccc5cc(F)ccc45)c4ccc(Cl)c-2c43)CC1 [Example 110, (−)-4′-chloro-3′-ethyl-7′-{3-[(6-fluoronaphthalen-1-yl)oxy]propyl}-2′-methyl-2′,10′,11′,15′-tetrahydro-13′H-spiro[cyclopropane-1,12′-pyrazolo[4′,3′:9,10][1,6]oxazacycloundecino[8,7,6-hi]indole]-8′-carboxylic acid-N-ethylethanamine salt] | – | 1.4e-06 M | 3.5e-07 M | – | IC50 (SUDHL10 cells [4]; [9]): 2.8e-07 M
– | – | 7e-06 M | 10000 nM | CCc1c2c(nn1C)CCCN(CC(F)F)CCn1c(C(=O)O)c(CCCOc3cccc4cc(F)ccc34)c3ccc(Cl)c-2c31 [Example 120, (−)-4-chloro-12-(2,2-difluoroethyl)-3-ethyl-7-{3-[(6-fluoronaphthalen-1-yl)oxy]propyl}-2-methyl-10,11,12,13,14,15-hexahydro-2H-pyrazolo[3′,4′:8,9][1,4]diazacycloundecino[10,11,1-hi]indole-8-carboxylic acid N-ethylethanamine salt] | – | – | – | – | IC50 (HMC-1-8 cells): 7.1e-06 M

Further lines, the compound ahead of its results:

Compound | IC50 (SUDHL5 cells [2]; Homo sapiens, SU-DHL-5, 72 h) | EC50 (SUDHL10 cells [1]) | IC50 (SUDHL5 cells [2]) | EC50 (SUDHL5 cells [5]) | IC50 (AMO-1 cells; Homo sapiens, AMO1, 72 h) | IC50 (HMC-1-8 cells; 72 h) | IC50 (AMO-1 cells) | IC50 (SUDHL5 cells [3]; [8]) | further results
CCc1c2c(nn1C)CN(CC(F)(F)F)CCCCn1c(C(=O)O)c(CCCOc3cccc4cc(F)ccc34)c3ccc(Cl)c-2c31 (racemic) [Example 61, (rac) 4-chloro-3-ethyl-7-{3-[(6-fluoronaphthalen-1-yl)oxy]propyl}-2-methyl-14-(2,2,2-trifluo-roethyl)-10,11,12,13,14,15-hexahydro-2H-pyrazolo[3′,4′:8,9][1,6]diazacycloundecino[10,11,1-hi]indole-8-carboxylic acid] | 2.5e-07 M | – | – | – | 6.8e-07 M | 1.7e-06 M | – | – | EC50 (SUDHL10 cells [1]; Homo sapiens, SU-DHL10, 3 h): 440 nM; IC50 (SUDHL5 cells [3]; [6]): 3.4e-07 M; IC50 (SUDHL10 cells [4]; [7]): 5.3e-07 M
Cc1c2c(nn1C)COCCC(F)(F)Cn1c(C(=O)O)c(CCCOc3cccc4ccccc34)c3ccc(Cl)c-2c31 (racemic) [Example 68, (rac)-4-chloro-11,11-difluoro-2,3-dimethyl-7-[3-(1-naphthyloxy)propyl]-2,10,11,12,13,15-hexahydropyrazolo[4′,3′:9,10][1,6]oxazacycloundecino[8,7,6-hi]indole-8-carboxylic acid] | 2.6e-06 M | – | – | – | 2.6e-06 M | 7.9e-06 M | – | – | EC50 (SUDHL5 cells [5]; Homo sapiens, SU-DHL-5, 3 h): 1400 nM; EC50 (SUDHL10 cells [1]; Homo sapiens, SU-DHL10, 3 h): 3100 nM; IC50 (SUDHL10 cells [4]; [7]): 3.3e-06 M
CCc1c2c(nn1C)COCC1CC1Cn1c(C(=O)O)c(CCCOc3cccc4cc(F)ccc34)c3ccc(Cl)c-2c31 (racemic) [Example 103, (rac)-3-chloro-4-ethyl-14-{3-[(6-fluoronaphthalen-1-yl)oxy]propyl}-5-methyl-5,7,9a,10,10a,11-hexahydro-9H-cyclopropa[3,4]pyrazolo[4′,3′:9,10][1,6]oxazacycloundecino[8,7,6-hi]indole-13-carboxylic acid] | – | 500 nM | 5.5e-07 M | – | – | 7.1e-06 M | 8.2e-07 M | 5.7e-07 M | IC50 (SUDHL10 cells [4]; [9]): 7e-07 M
CCc1c2c(nn1C)CN(C)CCCn1c(C(=O)O)c(CCCOc3cccc4cc(F)ccc34)c3ccc(Cl)c-2c31 (racemic) [Example 112, (rac)-12-chloro-11-ethyl-1-{3-[(6-fluoronaphthalen-1-yl)oxy]propyl}-7,10-dimethyl-4,5,6,7,8,10-hexahydropyrazolo[3′,4′:7,8][1,5]diazecino[9,10,1-hi]indole-2-carboxylic acid] | 1.5e-06 M | 860 nM | – | 600 nM | – | 7.1e-06 M | 9.1e-07 M | 6.1e-07 M | –
CCc1c2c(nn1C)CN(CCC1CCOCC1)CCCCn1c(C(=O)O)c(CCCOc3cccc4cc(F)ccc34)c3ccc(Cl)c-2c31 (racemic) [Example 135, (rac)-4-chloro-3-ethyl-7-{3-[(6-fluoronaphthalen-1-yl)oxy]propyl}-2-methyl-14-[2-(oxan-4-yl)ethyl]-10,11,12,13,14,15-hexahydro-2H-pyrazolo[3′,4′:8,9][1,6]diazacycloundecino[10,11,1-hi]indole-8-carboxylic acid] | 1.2e-07 M | – | – | – | 1.2e-07 M | 8.7e-07 M | – | – | EC50 (SUDHL10 cells [1]; Homo sapiens, SU-DHL10, 3 h): 140 nM; IC50 (SUDHL10 cells [4]; [7]): 1.5e-07 M
Cc1c2c(nn1C)CN(CC(F)(F)F)CCCCn1c(C(=O)O)c(CCCOc3cccc4cc(F)ccc34)c3ccc(Cl)c-2c31 (single isomer, unassigned; enantiomer 2) [Example 60, 4-chloro-7-{3-[(6-fluoronaphthalen-1-yl)oxy]propyl}-2,3-dimethyl-14-(2,2,2-trifluoroethyl)-10,11,12,13,14,15-hexahydro-2H-pyrazolo[3′,4′:8,9][1,6]diazacycloundecino[10,11,1-hi]indole-8-carboxylic acid—Enantiomer 2] | – | – | 3.9e-06 M | 7600 nM | – | 8.7e-06 M | – | 6.9e-06 M | –
Cc1c2c(nn1C)COCC1CCC1Cn1c(C(=O)O)c(CCCOc3cccc4ccccc34)c3ccc(Cl)c-2c31 (single isomer, unassigned; enantiomer 2) [Example 79, 3-chloro-4,5-dimethyl-15-{3-[(naphthalen-1-yl)oxy]propyl}-5,7,9,9a,10,11,11a,12-octahydrocyclobuta[3,4]pyrazolo[4′,3′:9,10][1,6]oxazacycloundecino[8,7,6-hi]indole-14-carboxylic acid (Enantiomer 2)] | – | – | – | – | – | 8.6e-06 M | – | – | EC50 (SUDHL5 cells [5]; listed as 079): 580 nM; EC50 (SUDHL10 cells [1]; listed as 079): 1400 nM; IC50 (AMO-1 cells; listed as 079): 1.7e-06 M; IC50 (SUDHL5 cells [3]; read-out: Cytotox SUDHL5 [M] (median), IC50, median, listed as 079): 7.7e-07 M; IC50 (SUDHL10 cells [4]; read-out: Cytotox SUDHL10 [M] (median), IC50, median, listed as 079): 1.6e-06 M
Cc1c2c(nn1C)COCC1CCC1Cn1c(C(=O)O)c(CCCOc3cccc4ccccc34)c3ccc(Cl)c-2c31 (single isomer, unassigned; stereoisomer 2) [Example 64] | 5e-07 M | – | – | 330 nM | 1.6e-06 M | 5.6e-06 M | – | – | IC50 (SUDHL5 cells [3]; [6]): 5.4e-07 M
